The values that follow come from patent US20210395256A1, “TYROSINE KINASE INHIBITORS, COMPOSITIONS AND METHODS THERE OF” (Betta Pharmaceuticals Co., Ltd., priority 2018, published 2021).

Series [1] has as its target TrkA kinase (Homo sapiens, UniProt P04629). Kind of series: TrkA kinase assay (mobility shift assay). The series is classed as biochemical. Particulars: numeric values; read-out: Trk A Kinase IC50. In short, it runs like this: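 Ten-point compound series was preincubated 10 min at room temperature with TrkA, then FAM-peptide plus ATP added in HEPES pH 7.5/Brij-35 buffer and reacted at 28 °C before EDTA quench.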

A short description of series [2]: Liver microsomes metabolic stability assay, human. To be noted: human liver microsomes 0.5 mg/mL, 37° C.; for half-life at 2 μM: read-out: t1/2 Human. The series is classed as in vitro ADME. As for the experimental part:
(§1) Example 203 Liver Microsomes Metabolic Stability Assay
(§2) Pooled human liver microsomes (Cat. 452117) were purchased from Corning. Pooled male rat liver microsomes (Cat. R1000) and pooled male mouse liver microsomes (Cat. M1000) were purchased from XENOTECH. Microsomes were stored at −80° C.
(§3) 1) Make a master solution containing phosphate buffer, ultra-pure H2O and MgCl2 solution according to Table 14.
(§4) 2) Two separated experiments were performed as follows.
(§5) a) With NADPH: 10 μL of 20 mg/mL liver microsomes and 40 μL of 10 mM NADPH were added to the incubations. The final concentrations of microsomes and NADPH were 0.5 mg/mL and 1 mM, respectively.
(§6) b) Without NADPH: 10 μL of 20 mg/mL liver microsomes and 40 μL of ultra-pure H2O were added to the incubations. The final concentration of microsomes was 0.5 mg/mL.
(§7) 3) The reaction was started with the addition of 4 μL test compounds solutions or control compound solution (verapamil) at the final concentration of 2 μM and carried out at 37° C.
(§8) 4) Aliquots of 50 μL were taken from the reaction solution at 0, 15, 30, 45 and 60 min. The reaction solutions were stopped by the addition of 4 volumes of cold acetonitrile with 1S (100 nM alprazolam, 200 nM caffeine, 200 nM labetalol and 2 μM ketoprofen). Samples were centrifuged at 3,220 g for 40 minutes. Aliquot of 100 μL of the supernatant was mixed with 100 μL of ultra-pure H2O and then used for LC-MS/MS analysis. All experiments were performed in duplicate.
(§9) The slope value, k, was determined by linear regression of the natural logarithm of the remaining percentage of the parent drug vs. incubation time curve.
(§10) The in vitro half-life (in vitro t1/2) was determined from the slope value:
(§11) Conversion of the in vitro t1/2 (in min) into the in vitro intrinsic clearance (in vitro CLint, in μL/min/mg proteins) was done using the following equation (mean of duplicate determinations): […]
(§12) The control compound (verapamil) was included in the assay. Any value of the compounds that was not within the specified limits will be rejected and the experiment will be repeated.
For orientation: Microsomes from liver hold many membrane-bound enzymes, among them those of drug oxidation.

Series [3] can be described thus: Liver microsomes metabolic stability assay, rat. The series is classed as in vitro ADME. Particulars: male, rat liver microsomes 0.5 mg/mL, 37° C.; for half-life at 2 μM: read-out: t1/2 Rat. How it is done:
as §1, §2, §3, §4, §5, §6, §7, §8, §9, §10, §11, §12

Series [4] can be described thus: Liver microsomes metabolic stability assay, mouse. The series is classed as in vitro ADME. To be noted: male, mouse liver microsomes 0.5 mg/mL, 37° C.; for half-life at 2 μM: read-out: t1/2 Mouse. How it is done: as §1, §2, §3, §4, §5, §6, §7, §8, §9, §10, §11, §12

Sequence of TrkA kinase (P04629 33-796): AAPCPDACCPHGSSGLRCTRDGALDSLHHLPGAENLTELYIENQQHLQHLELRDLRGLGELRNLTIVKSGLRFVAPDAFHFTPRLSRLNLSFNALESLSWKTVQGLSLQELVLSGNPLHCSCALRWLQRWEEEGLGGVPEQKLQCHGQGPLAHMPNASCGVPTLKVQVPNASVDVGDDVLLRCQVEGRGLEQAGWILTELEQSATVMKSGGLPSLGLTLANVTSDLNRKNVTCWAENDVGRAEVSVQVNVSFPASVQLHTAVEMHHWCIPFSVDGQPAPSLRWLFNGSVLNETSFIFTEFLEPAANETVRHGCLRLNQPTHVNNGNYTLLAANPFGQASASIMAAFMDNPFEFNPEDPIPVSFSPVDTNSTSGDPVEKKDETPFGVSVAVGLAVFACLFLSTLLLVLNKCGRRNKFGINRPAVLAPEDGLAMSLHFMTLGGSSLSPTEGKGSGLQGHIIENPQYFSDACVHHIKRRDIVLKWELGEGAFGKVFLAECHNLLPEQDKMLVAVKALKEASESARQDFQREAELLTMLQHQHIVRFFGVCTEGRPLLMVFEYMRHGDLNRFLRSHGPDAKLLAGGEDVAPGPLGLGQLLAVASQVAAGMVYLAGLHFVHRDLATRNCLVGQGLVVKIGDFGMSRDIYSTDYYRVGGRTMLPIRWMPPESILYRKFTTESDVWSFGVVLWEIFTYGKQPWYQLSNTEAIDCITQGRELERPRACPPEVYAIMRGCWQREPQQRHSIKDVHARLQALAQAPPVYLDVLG

A word on the IC50: it is the midpoint of a concentration-inhibition curve. Usually microsomal CLint stands for the capacity of the preparation to metabolise the compound, expressed as a volume cleared per time. With `C[C@@](O)(c1nnc(-c2cnn3ccc(N4CCC[C@@H]4c4cc(F)ccc4F)nc23)[nH]1)C(F)(F)F` [Compound 26, (R)-2-(5-(5-((R)-2-(2,5-difluorophenyl)pyrrolidin-1-yl)pyrazolo[1,5-a]pyrimidin-3-yl)-4H-1,2,4-triazol-3-yl)-1,1,1-trifluoropropan-2-ol], the IC50 in series [1] amounted to 2.6 nM. Also, the figures for the microsomal CLint at 2 μM in series [2], in series [3] and in series [4] were 23 µL/min/mg, 40.5 µL/min/mg and 25.9 µL/min/mg, respectively. In addition, the half-life at 2 μM in series [2] turned out to be 60.2 min; in series [3] it was 34.2 min; in series [4], 53.5 min.
In the case of `Fc1ccc(F)c([C@H]2CCCN2c2ccn3ncc(-c4nnc(-c5ccc6c(c5)CCNC6)[nH]4)c3n2)c1` [Compound 36, (R)-6-(5-(5-(2-(2,5-difluorophenyl)pyrrolidin-1-yl)pyrazolo[1,5-a]pyrimidin-3-yl)-4H-1,2,4-triazol-3-yl)-1,2,3,4-tetrahydroisoquinoline], the IC50 in series [1] stood at 1.14 nM. Further, the microsomal CLint at 2 μM in series [2] was determined as 4.4 µL/min/mg; in series [3], 19.2 µL/min/mg; in series [4], 4.6 µL/min/mg. For the same compound, the half-life at 2 μM in series [2] amounted to 315 min; in series [3], 72.2 min; in series [4] it was 301 min.
Turning to `Fc1ccc(F)c([C@H]2CCCN2c2ccn3ncc(-c4nnc(-c5ccc(N6CCNCC6)cc5)[nH]4)c3n2)c1` [Compound 40, (R)-5-(2-(2,5-difluorophenyl)pyrrolidin-1-yl)-3-(5-(4-(piperazin-1-yl)phenyl)-4H-1,2,4-triazol-3-yl)pyrazolo[1,5-a]pyrimidine], the IC50 in series [1] was determined as 1.56 nM. The microsomal CLint at 2 μM in series [2] was determined as 3.2 µL/min/mg; in series [3], 4.6 µL/min/mg; in series [4], 12.4 µL/min/mg. Also, the half-life at 2 μM in series [2] turned out to be 433 min; in series [3] it was 301 min; in series [4], 112 min.
Regarding `Fc1ccc(F)c([C@H]2CCCN2c2ccn3ncc(-c4nc5cnccc5[nH]4)c3n2)c1` [Compound 65, (R)-2-(5-(2-(2,5-difluorophenyl)pyrrolidin-1-yl)pyrazolo[1,5-a]pyrimidin-3-yl)-1H-imidazo[4,5-c]pyridine], the IC50 in series [1] stood at 0.27 nM. For the same compound, the microsomal CLint at 2 μM in series [2] is 12.6 µL/min/mg; in series [3], 17.2 µL/min/mg; in series [4], 24 µL/min/mg. Besides, the half-life at 2 μM in series [2] was 110 min; in series [3], 80.6 min; in series [4], 57.8 min.
Consider `Fc1ccc(F)c([C@H]2CCCN2c2ccn3ncc(-c4nc5cc(OC(F)(F)F)ccc5[nH]4)c3n2)c1` [Compound 71, (R)-5-(2-(2,5-difluorophenyl)pyrrolidin-1-yl)-3-(5-(trifluoromethoxy)-1H-benzo[d]imidazol-2-yl)pyrazolo[1,5-a]pyrimidine], for which the IC50 in series [1] came to 27.1 nM. For the same compound, the results for the microsomal CLint at 2 μM in series [2], in series [3] and in series [4] were 17 µL/min/mg, 12.2 µL/min/mg and 10.8 µL/min/mg, respectively. In addition, the figures for the half-life at 2 μM in series [2], in series [3] and in series [4] were 81.5 min, 114 min and 128 min, respectively.
Consider `Fc1ccc(F)c([C@H]2CCCN2c2ccn3ncc(-c4nc5cnncc5[nH]4)c3n2)c1` [Compound 76, (R)-2-(5-(2-(2,5-difluorophenyl)pyrrolidin-1-yl)pyrazolo[1,5-a]pyrimidin-3-yl)-1H-imidazo[4,5-d]pyridazine], for which the IC50 in series [1] turned out to be 0.66 nM. For the same compound, the microsomal CLint at 2 μM in series [2] came to 21.2 µL/min/mg; in series [3] it was 22.2 µL/min/mg; in series [4] it was 15.6 µL/min/mg. The figures for the half-life at 2 μM in series [2], in series [3] and in series [4] were 65.4 min, 62.4 min and 88.8 min, respectively.
Consider `Fc1ccc(F)c([C@H]2CCCN2c2ccn3ncc(-c4nc5cc6c(cc5[nH]4)OC(F)(F)O6)c3n2)c1` [Compound 79, (R)-6-(5-(2-(2,5-difluorophenyl)pyrrolidin-1-yl)pyrazolo[1,5-a]pyrimidin-3-yl)-2,2-difluoro-5H-[1,3]dioxolo[4′,5′:4,5]benzo[1,2-d]imidazole], for which, in series [1], the IC50 was found to be 11.9 nM. Also, the microsomal CLint at 2 μM in series [2] is 10.2 µL/min/mg; in series [3], 10.8 µL/min/mg; in series [4], 10 µL/min/mg. The values for the half-life at 2 μM in series [2], in series [3] and in series [4] were 136 min, 128 min and 139 min, respectively.
For `Fc1ccc(F)c([C@H]2CCCN2c2ccn3ncc(-c4nc5ccc(OC(F)(F)F)cc5o4)c3n2)c1` [Compound 80, (R)-2-(5-(2-(2,5-difluorophenyl)pyrrolidin-1-yl)pyrazolo[1,5-a]pyrimidin-3-yl)-6-(trifluoromethoxy)benzo[d]oxazole], the IC50 in series [1] came to 23.6 nM. Moreover, the microsomal CLint at 2 μM in series [2] stood at 2.4 µL/min/mg; in series [3], 7 µL/min/mg; in series [4], 8.4 µL/min/mg. Also, the half-life at 2 μM in series [2] turned out to be 578 min; in series [3], 198 min; in series [4], 165 min.
As to `COc1cc2nc(-c3cnn4ccc(N5CCC[C@@H]5c5cc(F)ccc5F)nc34)[nH]c2cc1C(=O)O` [Compound 90, (R)-2-(5-(2-(2,5-difluorophenyl)pyrrolidin-1-yl)pyrazolo[1,5-a]pyrimidin-3-yl)-5-methoxy-1H-benzo[d]imidazole-6-carboxylic acid], the IC50 in series [1] is 0.44 nM. The microsomal CLint at 2 μM in series [2] was 5.6 µL/min/mg; in series [3] it was 1.4 µL/min/mg; in series [4], 0.8 µL/min/mg. The half-life at 2 μM in series [2] came out at 248 min; in series [3], 990 min; in series [4], 1730 min.
On to `Fc1ccc(F)c([C@H]2CCCN2c2ccn3ncc(-c4nc5cc(Cl)c(OC(F)(F)F)cc5[nH]4)c3n2)c1` [Compound 92, (R)-3-(5-chloro-6-(trifluoromethoxy)-1H-benzo[d]imidazol-2-yl)-5-(2-(2,5-difluorophenyl)pyrrolidin-1-yl)pyrazolo[1,5-a]pyrimidine], for which, in series [1], the IC50 was 20.7 nM. Further, the values for the microsomal CLint at 2 μM in series [2], in series [3] and in series [4] were 20.4 µL/min/mg, 10.2 µL/min/mg and 5.6 µL/min/mg, respectively. Also, the half-life at 2 μM was found to be 67.9 min in series [2], 136 min in series [3] and 248 min in series [4].
`Fc1ccc(F)c([C@H]2CCCN2c2ccn3ncc(-c4nc5cc6c(cc5[nH]4)OCCO6)c3n2)c1` [Compound 96, (R)-2-(5-(2-(2,5-difluorophenyl)pyrrolidin-1-yl)pyrazolo[1,5-a]pyrimidin-3-yl)-6,7-dihydro-1H-[1,4]dioxino[2′,3′:4,5]benzo[1,2-d]imidazole]: the IC50 in series [1] was 0.7 nM. Moreover, the microsomal CLint at 2 μM in series [2] worked out at 37 µL/min/mg; in series [3], 29.4 µL/min/mg; in series [4], 32 µL/min/mg. Moreover, the half-life at 2 μM in series [2] stood at 37.5 min; in series [3], 47.1 min; in series [4], 43.3 min.
On to `COc1cc2[nH]c(-c3cnn4ccc(N5CCC[C@@H]5c5cc(F)ccc5F)nc34)nc2cc1Cl` [Compound 112, (R)-3-(5-chloro-6-methoxy-1H-benzo[d]imidazol-2-yl)-5-(2-(2,5-difluorophenyl)pyrrolidin-1-yl)pyrazolo[1,5-a]pyrimidine], for which the IC50 in series [1] is 3.2 nM. Further, the microsomal CLint at 2 μM in series [2] came to 16.8 µL/min/mg; in series [3], 34 µL/min/mg; in series [4] it was 27.4 µL/min/mg. Also, the figures for the half-life at 2 μM in series [2], in series [3] and in series [4] were 82.5 min, 40.8 min and 50.6 min, respectively.
